Here are results for 19 molecules from patent publication US11623919B2, “Heterocyclic P2X7 antagonists” (AXXAM S.P.A., priority 2017, dated 2023).

As usually defined, the IC50 is the point on the concentration scale where inhibition reaches its midpoint.

Bounds are passed on as bounds.

Holding throughout (assay): Screen Quest Fluo-8 No Wash Calcium Assay (Bz-ATP evoked Ca2+ influx, FLIPR)
Assay type in all cases: cell-based

Assay [1] addresses T1, P2X7 receptor (Rattus norvegicus, UniProt Q64663).
T1 construct: rP2X7 (IC50; nM); other: rP2X7; HEK-293 cells stably transfected with P2X7 receptor, Bz-ATP at EC80, Fluo-8 NW; potency
T1 sequence (Q64663 1-595): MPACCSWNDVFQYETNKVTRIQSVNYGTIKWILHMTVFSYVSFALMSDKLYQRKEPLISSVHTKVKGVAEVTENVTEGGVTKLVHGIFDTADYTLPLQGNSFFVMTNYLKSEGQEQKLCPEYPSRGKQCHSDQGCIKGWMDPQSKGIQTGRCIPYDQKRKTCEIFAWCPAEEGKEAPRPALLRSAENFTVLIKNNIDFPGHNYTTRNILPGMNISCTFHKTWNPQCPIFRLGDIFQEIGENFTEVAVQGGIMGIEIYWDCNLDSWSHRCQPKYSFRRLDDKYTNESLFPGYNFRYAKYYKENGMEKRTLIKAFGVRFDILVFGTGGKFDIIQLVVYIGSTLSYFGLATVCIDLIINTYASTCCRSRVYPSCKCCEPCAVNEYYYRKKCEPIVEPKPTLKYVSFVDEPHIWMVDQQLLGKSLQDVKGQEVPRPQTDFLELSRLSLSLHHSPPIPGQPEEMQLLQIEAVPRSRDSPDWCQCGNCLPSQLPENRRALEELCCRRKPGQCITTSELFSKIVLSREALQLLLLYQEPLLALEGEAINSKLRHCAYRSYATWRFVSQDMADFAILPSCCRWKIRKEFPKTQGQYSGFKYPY
Particulars: rP2X7; HEK-293 cells stably transfected with P2X7 receptor, Bz-ATP at EC80, Fluo-8 NW; potency ranges A-D. Summed up:
(§1)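 HEK-293 cells stably expressing P2X7 were loaded with Fluo-8 NW for 1 h at RT, then given compound, and 5 min later Bz-ATP at EC80. Fluorescence was read by FLIPR in low divalent cation buffer (0.3 mM Ca2+, 0 mM Mg2+). IC50 came from percent inhibition relative to reference antagonist A438079.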

Assay [2] concerns the target T2, P2X7 receptor (Mus musculus, UniProt Q9Z1M0).
T2 construct: mP2X7 (IC50; nM); other: mP2X7; HEK-293 cells stably transfected with P2X7 receptor, Bz-ATP at EC80, Fluo-8 NW; potency
T2 sequence (Q9Z1M0 1-595): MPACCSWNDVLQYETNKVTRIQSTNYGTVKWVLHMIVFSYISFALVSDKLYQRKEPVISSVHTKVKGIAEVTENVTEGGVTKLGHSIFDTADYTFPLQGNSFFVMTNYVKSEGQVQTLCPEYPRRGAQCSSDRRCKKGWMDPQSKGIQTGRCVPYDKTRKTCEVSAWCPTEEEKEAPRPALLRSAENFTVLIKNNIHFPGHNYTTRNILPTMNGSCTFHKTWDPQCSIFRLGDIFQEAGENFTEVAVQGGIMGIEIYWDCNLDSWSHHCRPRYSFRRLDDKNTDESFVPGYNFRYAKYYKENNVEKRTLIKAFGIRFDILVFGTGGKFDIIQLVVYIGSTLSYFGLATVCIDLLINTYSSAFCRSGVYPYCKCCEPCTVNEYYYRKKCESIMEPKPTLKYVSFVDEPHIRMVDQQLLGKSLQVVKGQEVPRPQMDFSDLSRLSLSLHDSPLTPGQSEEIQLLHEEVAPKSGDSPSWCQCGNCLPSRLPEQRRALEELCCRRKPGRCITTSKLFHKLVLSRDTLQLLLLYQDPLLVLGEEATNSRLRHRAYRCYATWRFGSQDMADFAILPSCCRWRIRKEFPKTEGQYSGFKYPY
Particulars: mP2X7; HEK-293 cells stably transfected with P2X7 receptor, Bz-ATP at EC80, Fluo-8 NW; potency ranges A-D. The gist of the method:
as §1

The target of assay [3] is T3, P2X7 receptor (Homo sapiens, UniProt Q99572).
T3 sequence (Q99572 1-595): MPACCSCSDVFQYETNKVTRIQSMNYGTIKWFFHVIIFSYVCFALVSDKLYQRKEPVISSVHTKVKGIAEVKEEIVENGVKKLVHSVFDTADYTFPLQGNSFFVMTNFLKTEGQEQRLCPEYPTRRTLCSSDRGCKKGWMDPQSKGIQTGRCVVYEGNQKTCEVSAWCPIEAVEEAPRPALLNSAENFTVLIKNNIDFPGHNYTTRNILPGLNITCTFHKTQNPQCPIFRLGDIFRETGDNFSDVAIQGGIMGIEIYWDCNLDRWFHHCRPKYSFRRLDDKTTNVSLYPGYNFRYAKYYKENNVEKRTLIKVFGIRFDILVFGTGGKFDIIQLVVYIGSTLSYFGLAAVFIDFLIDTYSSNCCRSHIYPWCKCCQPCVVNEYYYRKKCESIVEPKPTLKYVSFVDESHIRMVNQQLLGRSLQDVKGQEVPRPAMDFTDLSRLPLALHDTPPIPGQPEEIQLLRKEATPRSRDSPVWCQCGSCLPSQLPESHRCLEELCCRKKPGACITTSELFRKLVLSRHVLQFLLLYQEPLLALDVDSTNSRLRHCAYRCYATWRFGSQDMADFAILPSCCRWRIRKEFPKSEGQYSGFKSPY
Also on record: hP2X7 (IC50; nM); other: hP2X7; HEK-293 cells stably transfected with P2X7 receptor, Bz-ATP at EC80, Fluo-8 NW; potency. The settings on record: hP2X7; HEK-293 cells stably transfected with P2X7 receptor, Bz-ATP at EC80, Fluo-8 NW; potency ranges A-D. The gist of the method: as §1

On to `COc1cccc(Cc2noc(=O)n2CC2CCC(F)(F)CC2)c1` [Example 160, 4-[(4,4-difluorocyclohexyl)methyl]-3-[(3-methoxyphenyl)methyl]-4,5-dihydro-1,2,4-oxadiazol-5-one], for which the IC50 at P2X7 receptor [1] lay in the range of 200 to 1000 nM; at P2X7 receptor [2], 1000 to 10000 nM; on P2X7 receptor [3] it was 200 to 1000 nM.

`O=c1onc(Cc2c(F)cccc2Cl)n1CC1CC1` [Example 83, 3-[(2-chloro-6-fluorophenyl)methyl]-4-(cyclopropylmethyl)-4,5-dihydro-1,2,4-oxadiazol-5-one]: the IC50 on P2X7 receptor [1], on P2X7 receptor [2] and at P2X7 receptor [3] was above 10000 nM each time.

With `O=c1onc(Cc2c(F)cccc2Cl)n1CC1CCC(C(F)(F)F)CC1` (stereo not drawn) [Example 184, 3-[(2-chloro-6-fluorophenyl)methyl]-4-{[4-(trifluoromethyl)cyclohexyl]methyl}-1,2,4-oxadiazol-5(4H)-one], the IC50 on P2X7 receptor [1], on P2X7 receptor [2] and on P2X7 receptor [3] was below 200 nM throughout.

For the molecule `O=c1onc(CN2CCC(F)(F)CC2)n1CC1CCC(F)(F)CC1` [Example 223, 4-[(4,4-difluorocyclohexyl)methyl]-3-[(4,4-difluoropiperidin-1-yl)methyl]-4,5-dihydro-1,2,4-oxadiazol-5-one], the IC50 on P2X7 receptor [1], at P2X7 receptor [2] and at P2X7 receptor [3] was above 10000 nM throughout.

Consider `O=c1onc(Cc2c(F)cccc2Cl)n1Cc1ccc(C(F)(F)F)cc1` [Example 63, 3-[(2-chloro-6-fluorophenyl)methyl]-4-{[4-(trifluoromethyl)phenyl]methyl}-4,5-dihydro-1,2,4-oxadiazol-5-one], for which the half-maximal inhibitory concentration (IC50) on P2X7 receptor [1], on P2X7 receptor [2] and at P2X7 receptor [3] was 1000 to 10000 nM throughout.

As to `O=c1onc(CC2CCCCC2)n1CC1CCCCC1` [Example 129, bis(cyclohexylmethyl)-4,5-dihydro-1,2,4-oxadiazol-5-one], the IC50 on P2X7 receptor [1] is 1000 to 10000 nM; on P2X7 receptor [2] it was 1000 to 10000 nM; on P2X7 receptor [3], above 10000 nM.

Take `O=c1onc(CC2CCC(F)(F)CC2)n1Cc1ncc(F)cn1` [Example 190, 3-[(4,4-difluorocyclohexyl)methyl]-4-[(5-fluoropyrimidin-2-yl)methyl]-4,5-dihydro-1,2,4-oxadiazol-5-one]: the IC50 at P2X7 receptor [1], at P2X7 receptor [2] and at P2X7 receptor [3] was above 10000 nM throughout.

Consider `O=c1onc(CC2CCC(F)(F)CC2)n1Cc1ccccc1Cl` [Example 170, 4-[(2-chlorophenyl)methyl]-3-[(4,4-difluorocyclohexyl)methyl]-4,5-dihydro-1,2,4-oxadiazol-5-one], for which the IC50 at P2X7 receptor [1] is below 200 nM; at P2X7 receptor [2], 200 to 1000 nM; at P2X7 receptor [3], below 200 nM.

In the case of `CCCn1c(Cc2c(F)cccc2Cl)noc1=O` [Example 176, 3-[(2-chloro-6-fluorophenyl)methyl]-4-propyl-4,5-dihydro-1,2,4-oxadiazol-5-one], the IC50 at P2X7 receptor [1], on P2X7 receptor [2] and on P2X7 receptor [3] was above 10000 nM each time.

Regarding `CC#CCn1c(Cc2c(F)cccc2Cl)noc1=O` [Example 95, 4-(but-2-yn-1-yl)-3-[(2-chloro-6-fluorophenyl)methyl]-4,5-dihydro-1,2,4-oxadiazol-5-one], the IC50 on P2X7 receptor [1], on P2X7 receptor [2] and at P2X7 receptor [3] was above 10000 nM throughout.

On to `O=c1onc(Cc2c(F)cccc2Cl)n1CCN1CCCCC1` [Example 143, 3-(2-chloro-6-fluorobenzyl)-4-[2-(piperidin-1-yl)ethyl]-1,2,4-oxadiazol-5(4H)-one], for which the values for the IC50 at P2X7 receptor [1], on P2X7 receptor [2] and at P2X7 receptor [3] were 200 to 1000 nM, 1000 to 10000 nM and 200 to 1000 nM, respectively.

With `COc1cccc(Cc2noc(=O)n2CC2CCCCC2)c1` [Example 127, 4-(cyclohexylmethyl)-3-[(3-methoxyphenyl)methyl]-4,5-dihydro-1,2,4-oxadiazol-5-one], the IC50 at P2X7 receptor [1], at P2X7 receptor [2] and at P2X7 receptor [3] was above 10000 nM throughout.

Consider `O=c1onc(Cc2ccc(F)cc2Cl)n1CC1CCC(F)(F)CC1` [Example 162, 3-[(2-chloro-4-fluorophenyl)methyl]-4-[(4,4-difluorocyclohexyl)methyl]-4,5-dihydro-1,2,4-oxadiazol-5-one], for which the IC50 at P2X7 receptor [1], at P2X7 receptor [2] and at P2X7 receptor [3] was above 10000 nM throughout.

Take `O=c1onc(CC2CCC(F)(F)CC2)n1Cc1ccccc1F` [Example 165, 3-[(4,4-difluorocyclohexyl)methyl]-4-[(2-fluorophenyl)methyl]-4,5-dihydro-1,2,4-oxadiazol-5-one]: the IC50 at P2X7 receptor [1] was below 200 nM; at P2X7 receptor [2] it was 200 to 1000 nM; on P2X7 receptor [3], 200 to 1000 nM.

Take `O=c1onc(Cc2ccccn2)n1Cc1ccc(F)cc1` [Example 104, 4-[(4-fluorophenyl)methyl]-3-(pyridin-2-ylmethyl)-4,5-dihydro-1,2,4-oxadiazol-5-one]: the IC50 at P2X7 receptor [1], at P2X7 receptor [2] and on P2X7 receptor [3] was above 10000 nM throughout.

On to `Cc1nc(Cn2c(CC3CCC(F)(F)CC3)noc2=O)no1` [Example 196, 3-[(4,4-difluorocyclohexyl)methyl]-4-[(5-methyl-1,2,4-oxadiazol-3-yl)methyl]-1,2,4-oxadiazol-5(4H)-one], for which the IC50 on P2X7 receptor [1], on P2X7 receptor [2] and on P2X7 receptor [3] was above 10000 nM throughout.

For `COc1cc(Cn2c(Cc3ccc(F)cc3)noc2=O)cc(OC)c1` [Example 4, 4-[(3,5-dimethoxyphenyl)methyl]-3-[(4-fluorophenyl)methyl]-4,5-dihydro-1,2,4-oxadiazol-5-one], the IC50 on P2X7 receptor [1], on P2X7 receptor [2] and on P2X7 receptor [3] was above 10000 nM each time.

`O=c1onc(Cc2c(F)cccc2Cl)n1Cc1cccc(C(F)(F)F)c1Cl` [Example 58, 4-{[2-chloro-3-(trifluoromethyl)phenyl]methyl}-3-[(2-chloro-6-fluorophenyl)methyl]-4,5-dihydro-1,2,4-oxadiazol-5-one]: the IC50 on P2X7 receptor [1], on P2X7 receptor [2] and at P2X7 receptor [3] was 1000 to 10000 nM throughout.

`O=c1onc(CCc2c(F)cccc2Cl)n1CC1CCCCC1` [Example 146, 3-[2-(2-chloro-6-fluorophenyl)ethyl]-4-(cyclohexylmethyl)-1,2,4-oxadiazol-5(4H)-one]: the IC50 on P2X7 receptor [1] is 1000 to 10000 nM; on P2X7 receptor [2], above 10000 nM; on P2X7 receptor [3], 1000 to 10000 nM.
